This passage reports T/C results from PubChem BioAssay AID248 (DTP/NCI, 2004).

Structures are written as SMILES. Toxic doses and inconclusive results are not listed.

The subject of this assay is L1210 leukemia ip in BDF1 mice, survival T/C. As to the kind of experiment: NCI In Vivo Anticancer Drug Screen. Data for tumor model L1210 Leukemia (intraperitoneal) in B6D2F1 (BDF1) mice. The conditions noted are these: endpoint: mean survival time, higher = longer survival. In a few lines:
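Antitumor effect is assessed in tumor-bearing animals. Survival in the compound arm is compared with a vehicle-dosed control arm and expressed as their quotient.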

[1] abbreviates: dose: 75.0 mg/kg/injection, schedule: Q04DX003 (ip), vehicle: saline.
The mark [2] stands for this setting: dose: 150.0 mg/kg/injection, schedule: Q04DX003 (ip), vehicle: saline.
Setting [3] is: dose: 100.0 mg/kg/injection, schedule: Q01DX001 (ip), vehicle: saline.
Setting [4] is: dose: 100.0 mg/kg/injection, schedule: Q01DX009 (ip), vehicle: saline with Tween-80.
[5] abbreviates: dose: 200.0 mg/kg/injection, schedule: Q01DX009 (ip), vehicle: saline with Tween-80.
[6] abbreviates: dose: 100.0 mg/kg/injection, schedule: Q01DX001 (ip), vehicle: carboxymethylcellulose (CMC).
Where [7] appears, read: dose: 200.0 mg/kg/injection, schedule: Q01DX001 (ip), vehicle: carboxymethylcellulose (CMC).
The mark [8] stands for this setting: dose: 400.0 mg/kg/injection, schedule: Q01DX001 (ip), vehicle: carboxymethylcellulose (CMC).
The mark [9] stands for this setting: dose: 100.0 mg/kg/injection, schedule: Q04DX003 (ip), vehicle: saline with Tween-80.
[10] abbreviates: dose: 200.0 mg/kg/injection, schedule: Q04DX003 (ip), vehicle: saline with Tween-80.
Where [11] appears, read: dose: 400.0 mg/kg/injection, schedule: Q04DX003 (ip), vehicle: saline with Tween-80.
Where [12] appears, read: dose: 100.0 mg/kg/injection, schedule: Q04DX003 (ip), vehicle: Klucel (hydroxypropylcellulose) (HPC).
Setting [13] is: dose: 200.0 mg/kg/injection, schedule: Q04DX003 (ip), vehicle: Klucel (hydroxypropylcellulose) (HPC).
Setting [14] is: dose: 400.0 mg/kg/injection, schedule: Q04DX003 (ip), vehicle: Klucel (hydroxypropylcellulose) (HPC).

`O=[N+]([O-])C=C([SH2+])[SH2+].O=[N+]([O-])C=C([SH2+])[SH2+].[Co+3].c1ccc(C[P+](c2ccccc2)(c2ccccc2)c2ccccc2)cc1`: the T/C is 93 % of control under setting [1] and 93 % of control under setting [2].
In the case of `CC(C)C(C)(O)C(N)=O` (stereo not drawn), the T/C reads like this: under setting [3], 106 % of control; (dose: 200.0 mg/kg/injection, schedule: Q01DX001 (ip), vehicle: saline) 101 % of control.
Turning to `CC(C)N(C)N=Nc1n[nH]nc1C(N)=O`, the T/C (dose: 200.0 mg/kg/injection, schedule: Q01DX Z (ip), vehicle: carboxymethylcellulose (CMC)) is 104 % of control.
Regarding `COc1cccc(C(C)(C)COS(=O)(=O)c2ccc(C)cc2)c1`, the T/C was 90 % of control (dose: 50.0 mg/kg/injection, schedule: Q01DX009 (ip), vehicle: saline with Tween-80) and 90 % of control under setting [4].
Turning to `C[C@H](OC(=O)CCl)[C@@H](C)OC(=O)CCl`, the T/C (dose: 50.0 mg/kg/injection, schedule: Q01DX001 (sc), vehicle: carboxymethylcellulose (CMC)) is 109 % of control and the T/C (dose: 100.0 mg/kg/injection, schedule: Q01DX001 (sc), vehicle: carboxymethylcellulose (CMC)) was 88 % of control.
For `COC(=O)C(CCSC)NC(=O)c1ccccc1` (stereo not drawn), the T/C was 93 % of control under setting [4] and 96 % of control under setting [5].
Turning to `CCCCN1CC2CCCC1O2` (stereo not drawn), the T/C by setting is: (dose: 50.0 mg/kg/injection, schedule: Q01DX001 (ip), vehicle: saline) 97 % of control; under setting [3], 95 % of control.
Consider `CCCCc1cn(C(C)=O)nn1`, for which the T/C was 106 % of control (dose: 100.0 mg/kg/injection, schedule: Q04DX002 (ip), vehicle: saline with Tween-80) and 100 % of control (dose: 200.0 mg/kg/injection, schedule: Q04DX002 (ip), vehicle: saline with Tween-80).
Turning to `COc1cc(C(=O)c2ccccc2C(=O)O)c(OC)c2c1CCCC2`, the T/C was 91 % of control under setting [6], 92 % of control under setting [7] and 96 % of control under setting [8].
For the compound `OCC1C2C=CC(C3C=CC32)C1CO` (stereo not drawn), the T/C runs as follows: (dose: 100.0 mg/kg/injection, schedule: Q04DX002 (ip), vehicle: Klucel (hydroxypropylcellulose) (HPC)) 98 % of control; (dose: 200.0 mg/kg/injection, schedule: Q04DX002 (ip), vehicle: Klucel (hydroxypropylcellulose) (HPC)) 98 % of control; (dose: 400.0 mg/kg/injection, schedule: Q04DX002 (ip), vehicle: Klucel (hydroxypropylcellulose) (HPC)) 113 % of control.
Take `C=CCCCCCCCCC(=O)Cl`: the T/C under setting [4] is 89 % of control; the T/C under setting [9] was 97 % of control; the T/C under setting [5] is 88 % of control; the T/C under setting [10] is 101 % of control; the T/C (dose: 400.0 mg/kg/injection, schedule: Q01DX009 (ip), vehicle: saline with Tween-80) was 98 % of control; the T/C under setting [11] is 95 % of control.
Take `O=S(=O)([O-])CC[n+]1ccc(-c2ccccc2)o1`: the T/C by setting is: under setting [6], 94 % of control; (dose: 100.0 mg/kg/injection, schedule: Q04DX003 (ip), vehicle: saline) 110 % of control; under setting [7], 97 % of control; (dose: 200.0 mg/kg/injection, schedule: Q04DX003 (ip), vehicle: saline) 103 % of control; under setting [8], 97 % of control; (dose: 400.0 mg/kg/injection, schedule: Q04DX003 (ip), vehicle: saline) 118 % of control.
For `Cc1cc(C)c(C(=O)/C=C(\N)C(=O)c2c(C)cc(C)cc2C)c(C)c1`, the T/C was 110 % of control (dose: 50.0 mg/kg/injection, schedule: Q04DX003 (ip), vehicle: carboxymethylcellulose (CMC)); 98 % of control (dose: 100.0 mg/kg/injection, schedule: Q04DX003 (ip), vehicle: carboxymethylcellulose (CMC)); 104 % of control (dose: 200.0 mg/kg/injection, schedule: Q04DX003 (ip), vehicle: carboxymethylcellulose (CMC)).
On to `CC[CH2][Sn]([CH2]CC)([CH2]CC)[CH2]Cc1ccncc1`, for which the T/C runs as follows: (dose: 6.25 mg/kg/injection, schedule: Q04DX002 (ip), vehicle: saline with Tween-80) 101 % of control; (dose: 12.5 mg/kg/injection, schedule: Q04DX002 (ip), vehicle: saline with Tween-80) 93 % of control; (dose: 25.0 mg/kg/injection, schedule: Q04DX002 (ip), vehicle: saline with Tween-80) 89 % of control.
Turning to `NC(C(=O)O)c1cc(Cl)co1` (stereo not drawn), the T/C is, setting by setting: under setting [12], 105 % of control; under setting [13], 105 % of control; under setting [14], 101 % of control.
As to `COc1ccc(S(=O)(=O)c2ccc(F)cc2)cc1`, the T/C is 95 % of control (dose: 50.0 mg/kg/injection, schedule: Q04DX003 (ip), vehicle: Klucel (hydroxypropylcellulose) (HPC)); 98 % of control (dose: 100.0 mg/kg/injection, schedule: Q01DX001 (ip), vehicle: other); 103 % of control under setting [12]; 110 % of control (dose: 200.0 mg/kg/injection, schedule: Q01DX001 (ip), vehicle: other); 104 % of control under setting [13]; 95 % of control (dose: 400.0 mg/kg/injection, schedule: Q01DX001 (ip), vehicle: other).
With `Clc1cc(Cl)c2nc(Cl)c3ccccc3c2c1`, the T/C was 100 % of control (dose: 100.0 mg/kg/injection, schedule: Q01DX009 (ip), vehicle: Klucel (hydroxypropylcellulose) (HPC)); 95 % of control under setting [12]; 92 % of control (dose: 200.0 mg/kg/injection, schedule: Q01DX009 (ip), vehicle: Klucel (hydroxypropylcellulose) (HPC)); 90 % of control under setting [13]; 100 % of control (dose: 400.0 mg/kg/injection, schedule: Q01DX009 (ip), vehicle: Klucel (hydroxypropylcellulose) (HPC)); 93 % of control under setting [14].
Turning to `O=C(O)c1cc2ccccc2c(Br)c1O.OC1CCCC2CCC[N-]C12.[Cu+]`, the T/C was 97 % of control (dose: 4.0 mg/kg/injection, schedule: Q01DX015 (sc), vehicle: steriod suspending solution); 103 % of control (dose: 16.0 mg/kg/injection, schedule: Q01DX015 (sc), vehicle: steriod suspending solution); 100 % of control (dose: 32.0 mg/kg/injection, schedule: Q01DX015 (sc), vehicle: steriod suspending solution); 98 % of control (dose: 50.0 mg/kg/injection, schedule: Q01DX001 (sc), vehicle: steriod suspending solution); 111 % of control (dose: 100.0 mg/kg/injection, schedule: Q01DX001 (sc), vehicle: steriod suspending solution).
`OC(CN1CCCCC1)c1ccncc1` (stereo not drawn): the T/C under setting [1] is 94 % of control; the T/C under setting [2] was 94 % of control; the T/C (dose: 300.0 mg/kg/injection, schedule: Q04DX003 (ip), vehicle: saline) is 96 % of control.
As to `O=C(O)c1ccc(N=NSc2ncnc3nc[nH]c23)cc1O`, the T/C is, setting by setting: (dose: 2.5 mg/kg/injection, schedule: Q01DX Z (ip), vehicle: carboxymethylcellulose (CMC)) 150 % of control; (dose: 5.0 mg/kg/injection, schedule: Q01DX Z (ip), vehicle: carboxymethylcellulose (CMC)) 116 % of control; (dose: 10.0 mg/kg/injection, schedule: Q01DX Z (ip), vehicle: carboxymethylcellulose (CMC)) 116 % of control; (dose: 20.0 mg/kg/injection, schedule: Q01DX Z (ip), vehicle: carboxymethylcellulose (CMC)) 107 % of control; (dose: 40.0 mg/kg/injection, schedule: Q01DX015 (ip), vehicle: carboxymethylcellulose (CMC)) 88 % of control.
Consider `CCCCCCCCCCCCCCCCCCCOc1ccc(OCCCCCCCC)cc1`, for which the T/C was 94 % of control under setting [9], 92 % of control under setting [10] and 94 % of control under setting [11].
Consider `Nc1nc(N)nc(CCCCCCc2nc(N)nc(N)n2)n1`, for which the T/C was 88 % of control (dose: 50.0 mg/kg/injection, schedule: Q01DX001 (ip), vehicle: carboxymethylcellulose (CMC)); 88 % of control under setting [6]; 98 % of control under setting [7].
